Test results reported in US20240150356A1, “Pyrimidine amide compounds and use thereof” (ALPHALA CO., LTD., priority 2019, published 2024).

Tested on: Hep3B cells (hepatocellular carcinoma cell line)
Experiment: In vitro MTS cell viability assay (NCI-60 methodology), Hep3B
Type: cell-based
Details: Homo sapiens, 48 h, Table 3, MTS, 2 days drug incubation, 50% reduction vs time zero, read-out: Hep3B LC50
Outline: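 Hep3B cells given five 2-fold dilutions of compound for 2 days, with viability by MTS measured at time zero and at end. LC50 is the concentration giving a 50% fall in viable cells relative to the start of treatment, per NCI-60 formula.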

SMILES	LC50
CCn1cc2nc(-c3ccc(C(C)(C)C)cc3)nc(NC(=O)c3ccc([N+](=O)[O-])s3)c2c1 [Compound 3-11, N-(2-(4-(tert-butyl)phenyl)-6-ethyl-6H-pyrrolo[3,4-d]pyrimidin-4-yl)-5-nitrothiophene-2-carboxamide]	7.64 µM

Same assay, conditions: Homo sapiens, 48 h, Table 4, MTS, 2 days drug incubation, 50% reduction vs time zero, read-out: Hep3B LC50

SMILES	LC50
Cc1csc2c(NC(=O)c3ccc([N+](=O)[O-])s3)nc(-c3cccc(F)c3)nc12 [Compound 4-7, N-(2-(3-fluorophenyl)-7-methylthieno[3,2-d]pyrimidin-4-yl)-5-nitrothiophene-2-carboxamide]	1.28 µM

Same assay, conditions: Homo sapiens, 48 h, Table 5, MTS, 2 days drug incubation, 50% reduction vs time zero, read-out: Hep3B LC50

SMILES	LC50
O=C(Nc1nc(-c2ccc(F)cc2)nc2c1cnn2-c1ccccc1)c1ccc([N+](=O)[O-])s1 [Compound 5-27]	0.27 µM
O=C(Nc1nc(-c2ccc(N3CCOCC3)nc2)nc2c1cnn2-c1ccccc1)c1ccc([N+](=O)[O-])s1 [Compound 5-43, N-(6-(6-morpholinopyridin-3-yl)-1-phenyl-1H-pyrazolo[3,4-d]pyrimidin-4-yl)-5-nitrothiophene-2-carboxamide]	0.57 µM

Same assay, conditions: Homo sapiens, 48 h, Table 6, MTS, 2 days drug incubation, 50% reduction vs time zero, read-out: Hep3B LC50

SMILES	LC50
CC(C)(C)c1ccc(-n2ncc3c(NC(=O)c4ccc([N+](=O)[O-])s4)nc(-c4ccccc4F)nc32)cc1 [Compound 6-79, N-(1-(4-(tert-butyl)phenyl)-6-(2-fluorophenyl)-1H-pyrazolo[3,4-d]pyrimidin-4-yl)-5-nitrothiophene-2-carboxamide]	0.69 µM
CCOCCOCCOc1ccc(-c2nc(NC(=O)c3ccc([N+](=O)[O-])s3)c3cnn(-c4ccc(C(F)(F)F)cc4)c3n2)cn1 [Compound 6-56, N-(6(6-(2-(2-ethoxyethoxy)ethoxy)pyridin-3-yl)-1-(4-(trifluoromethyl)phenyl)-1H-pyrazolo[3,4-d]pyrimidin-4-yl)-5-nitrothiophene-2-carboxamide]	0.2 µM
CCOCCOCCOc1cc(Cl)ccc1-c1nc(NC(=O)c2ccc([N+](=O)[O-])s2)c2cnn(-c3ccc(F)cc3)c2n1 [Compound 6-140, N-(6-(4-chloro-2-(2-(2-ethoxyethoxy)ethoxy)phenyl)-1-(4-fluorophenyl)-1H-pyrazolo[3,4-d]pyrimidin-4-yl)-5-nitrothiophene-2-carboxamide]	4.83 µM
COc1ccc(-n2ncc3c(NC(=O)c4ccc([N+](=O)[O-])s4)nc(OC4CCCCC4)nc32)cc1 [Compound 6-16, N-(6-(cyclohexyloxy)-1-(4-methoxyphenyl)-1H-pyrazolo[3,4-d]pyrimidin-4-yl)-5-nitrothiophene-2-carboxamide]	1.36 µM
COCCOc1ccc(-c2nc(NC(=O)c3ccc([N+](=O)[O-])s3)c3cnn(-c4cccc(F)c4)c3n2)cn1 [Compound 6-94, N-(1-(3-fluorophenyl)-6-(6-(2-methoxyethoxy)pyridin-3-yl)-1H-pyrazolo[3,4-d]pyrimidin-4-yl)-5-nitrothiophene-2-carboxamide]	0.28 µM
CCCOc1ccc(-c2nc(NC(=O)c3ccc([N+](=O)[O-])s3)c3cnn(-c4ccc(OC)cc4)c3n2)cn1 [Compound 6-25]	0.21 µM
COc1ccc(-n2ncc3c(NC(=O)c4ccc([N+](=O)[O-])s4)nc(-c4ccc(Cl)nc4)nc32)cc1 [Compound 6-21, N-(6-(6-chloropyridin-3-yl)-1-(4-methoxyphenyl)-1H-pyrazolo[3,4,d]pyrimidin-4-yl)-5-nitrothiophene-2-carboxamide]	0.12 µM
COc1ccc(-c2nc(NC(=O)c3ccc([N+](=O)[O-])s3)c3cnn(-c4ccc(C)cc4)c3n2)cn1 [Compound 6-6, N-(6-(6-methoxypyridin-3-yl)-1-(p-tolyl)-1H-pyrazolo[3,4-d]pyrimidin-4-yl)-5-nitrothiophene-2-carboxamide]	0.4 µM
COC(=O)[C@@H]1CCCN1c1nc(NC(=O)c2ccc([N+](=O)[O-])s2)c2cnn(-c3ccc(F)cc3)c2n1 [Compound 6-100, methyl (1-(4-fluorophenyl)-4-(5-nitrothiophene-2-carboxamido)-1H-pyrazolo [3,4-d]pyrimidin-6-yl)-L-prolinate]	0.74 µM

Same assay, conditions: Homo sapiens, 48 h, Table 7, MTS, 2 days drug incubation, 50% reduction vs time zero, read-out: Hep3B LC50

SMILES	LC50
O=C(Nc1nc(-c2ccc(F)cc2)nc2c1cnn2-c1ccc(F)cc1F)c1ccc([N+](=O)[O-])s1 [Compound 7-12]	0.43 µM
O=C(Nc1nc(-c2ccc(F)nc2)nc2c1cnn2-c1ccc(F)cc1F)c1ccc([N+](=O)[O-])s1 [Compound 7-13]	0.13 µM
O=C(Nc1nc(-c2ccc(F)cc2)nc2c1cnn2-c1ccccn1)c1ccc([N+](=O)[O-])s1 [Compound 7-8, N-(6-(4-fluorophenyl)-1-(pyridin-2-yl)-1H-pyrazolo[3,4-d]pyrimidin-4-yl)-5-nitrothiophene-2-carboxamide]	0.58 µM
O=C(Nc1nc(-c2ccc(Cl)cc2)nc2c1cnn2Cc1ccccc1)c1ccc([N+](=O)[O-])s1 [Compound 7-16, N-(1-benzyl-6-(4-chlorophenyl)-1H-pyrazolo[3,4-d]pyrimidin-4-yl)-5-nitrothiophene-2-carboxamide]	> 1.25 µM
O=C(Nc1nc(-c2ccc(F)nc2)nc2c1cnn2-c1ccc(C(F)(F)F)cn1)c1ccc([N+](=O)[O-])s1 [Compound 7-2, N-(6-(6-fluoropyridin-3-yl)-1-(5-(trifluoromethyl)pyridin-2-yl)-1H-pyrazolo[3,4,d]pyrimidin-4-yl)-5-nitrothiophene-2-carboxamide]	0.15 µM

Same assay, conditions: Homo sapiens, 48 h, Table 8, MTS, 2 days drug incubation, 50% reduction vs time zero, read-out: Hep3B LC50

SMILES	LC50
C[C@@H]1C[C@@H](n2ncc3c(NC(=O)c4ccc([N+](=O)[O-])s4)nc(-c4ccc(F)nc4)nc32)CC(C)(C)C1 [Compound 8-14, N-(6-(6-fluoropyridin-3-yl)-1-((1R,5S)-3,3,5-trimethylcyclohexyl)-1H-pyrazolo[3,4-d]pyrimidin-4-yl)-5-nitrothiophene-2-carboxamide]	0.62 µM
CC(C)N1CC[C@H](n2ncc3c(NC(=O)c4ccc([N+](=O)[O-])s4)nc(-c4ccc(F)nc4)nc32)C1 [Compound 8-1, (S)—N-(6-(6-fluoropyridin-3-yl)-1-(1-isopropylpyrrolidin-3-yl)-1H-pyrazolo[3,4-d]pyrimidin-4-yl)-5-nitrothiophene-2-carboxamide]	> 3 µM

Same assay, conditions: Homo sapiens, 48 h, Table 9, MTS, 2 days drug incubation, 50% reduction vs time zero, read-out: Hep3B LC50

SMILES	LC50
CCOCCOCCOC(=O)N1CCC(n2ncc3c(NC(=O)c4ccc([N+](=O)[O-])s4)nc(-c4ccc(Cl)cc4)nc32)CC1 [Compound 9-11, 2-(2-ethoxyethoxy)ethyl 4-(6-(4-chlorophenyl)-4-(5-nitrothiophene-2-carboxamido)-1H-pyrazolo[3,4-d]pyrimidin-1-yl)piperidine-1-carboxylate]	> 1.25 µM

Same assay, conditions: Homo sapiens, 48 h, Table 10, MTS, 2 days drug incubation, 50% reduction vs time zero, read-out: Hep3B LC50

SMILES	LC50
O=C(Nc1nc(-c2ccc(OCC(F)(F)C(F)F)nc2)nc2c1cnn2C1CCCCC1)c1ccc([N+](=O)[O-])s1 [Compound 10-52, N-(1-cyclohexyl-6-(6-(2,2,3,3-tetrafluoropropoxy)pyridin-3-yl)-1H-pyrazolo[3,4-d]pyrimidin-4-yl)-5-nitrothiophene-2-carboxamide]	0.42 µM
CCOc1ccc(-c2nc(NC(=O)c3ccc([N+](=O)[O-])s3)c3cnn(C4CCC(F)(F)CC4)c3n2)cc1 [Compound 10-59, N-(1-(4,4<fluorocyclohexyl)-4-(4-ethoxyphenyl)-1H-pyrazolo[3,4-d]pyrimidin-4-yl)-5-nitrothiophene-2-carboxamide]	1.28 µM
CC1CC(C)CC(n2ncc3c(NC(=O)c4ccc([N+](=O)[O-])s4)nc(-c4ccc(Cl)cc4)nc32)C1 (stereo not shown) [Compound 10-69, N-(6-(4-chlorophenyl)-1-(3,5-dimethylcyclohexyl)-1H-pyrazolo[3,4-d]pyrimidin-4-yl)-5-nitrothiophene-2-carboxamide]	0.86 µM
O=C(Nc1nc(-c2ccc(F)cc2Cl)nc2c1cnn2C1CCCCC1)c1ccc([N+](=O)[O-])s1 [Compound 10-46, N-(6-(2-chlor-4-fluorophenyl)-1-cyclohexyl-1H-pyrazolo[3,4-d]pyrimidin-4-yl)-5-nitrothiophene-2-carboxamide]	1.03 µM
O=C(Nc1nc(-c2cccc(Cl)c2)nc2c1cnn2C1CCCCC1)c1ccc([N+](=O)[O-])s1 [Compound 10-16, N-(6-(3-chlorophenyl)-1-cyclohexyl-1H-pyrazolo[3,4-d]pyrimidin-4-yl)-5-nitrothiophene-2-carboxamide]	0.61 µM
O=C(Nc1nc(-c2ccc(Cl)cc2)nc2c1cnn2C1CCCCC1)c1ccc([N+](=O)[O-])s1 [Compound 10-17, N-(6-(4-chlorophenyl)-1-cyclohexyl-1H-pyrazolo[3,4-d]pyrimidin-4-yl)-5-nitrothiophene-2-carboxamide]	0.53 µM
CCOc1ccc(-c2nc(NC(=O)c3ccc([N+](=O)[O-])s3)c3cnn(C4CCCCC4)c3n2)cc1Cl [Compound 10-44]	> 2 µM
O=C(Nc1nc(-c2ccsc2)nc2c1cnn2C1CCCCC1)c1ccc([N+](=O)[O-])s1 [Compound 10-6, N-(1-cyclohexyl-6-(thiophen-3-yl)-1H-pyrazolo[3,4-d]pyrimidin-4-yl)-5-nitrothiophene-2-carboxamide]	1.03 µM
COC(=O)c1cccc(-c2nc(NC(=O)c3ccc([N+](=O)[O-])s3)c3cnn(C4CCCCC4)c3n2)c1 [Compound 10-31, methyl 3-(1-cyclohexyl-4-(5-nitrothiophene-2-carboxamido)-1H-pyrazolo[3,4-d]pyrimidin-6-yl)benzoate]	0.58 µM

Same assay, conditions: Homo sapiens, 48 h, read-out: Hep3B LC50 (uM)

SMILES	LC50
CC(C)(C)[Si](C)(C)OC1CN(c2nc(NC(=O)c3ccc([N+](=O)[O-])s3)c3cnn(-c4ccc(OC(F)(F)F)cc4)c3n2)C1 [Compound 6-84]	1.13 µM
